molecular target: T1, Human SGLT2 (hSGLT2) (Homo sapiens, UniProt P31639); assay: Sodium-dependent glucose transport (14C-AMG uptake) assay in CHO cells stably expressing hSGLT2; type: cell-based; conditions: CHO cells expressing hSGLT2, 14C-AMG uptake, 37° C. for 2 h; single determinations; read-out: hSGLT2 Inhibitory Activity IC50
T1 construct: expressed in transfected cells
T1 sequence (P31639 1-672): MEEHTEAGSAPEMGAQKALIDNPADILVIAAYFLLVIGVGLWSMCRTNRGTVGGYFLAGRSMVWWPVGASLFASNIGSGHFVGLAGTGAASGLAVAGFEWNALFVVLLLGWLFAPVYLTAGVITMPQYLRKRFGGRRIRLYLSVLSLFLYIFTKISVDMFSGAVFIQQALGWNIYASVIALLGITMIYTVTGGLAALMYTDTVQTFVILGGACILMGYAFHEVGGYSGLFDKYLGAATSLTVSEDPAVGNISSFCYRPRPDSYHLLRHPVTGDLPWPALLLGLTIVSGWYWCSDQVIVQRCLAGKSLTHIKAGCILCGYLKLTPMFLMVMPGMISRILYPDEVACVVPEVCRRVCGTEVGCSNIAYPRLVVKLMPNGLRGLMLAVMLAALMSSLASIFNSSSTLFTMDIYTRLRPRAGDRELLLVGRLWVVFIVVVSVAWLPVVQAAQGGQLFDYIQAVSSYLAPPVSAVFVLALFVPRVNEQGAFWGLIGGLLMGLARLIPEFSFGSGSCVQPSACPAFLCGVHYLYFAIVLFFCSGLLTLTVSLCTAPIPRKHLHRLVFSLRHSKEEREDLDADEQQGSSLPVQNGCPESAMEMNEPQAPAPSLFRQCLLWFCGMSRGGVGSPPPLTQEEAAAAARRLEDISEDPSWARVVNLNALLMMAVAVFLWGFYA
Outline: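 CHO cells stably expressing human SGLT2, preincubated 10 min at 37 °C in sodium-free choline buffer, then 2 h at 37 °C in Na+ buffer with 1 mM AMG plus 8 μM 14C-AMG and inhibitor. Washed cells counted by scintillation; IC50 by nonlinear regression.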

Q: For `OC[C@H]1O[C@@H](c2ccc(Cl)c(Cc3cnc(-c4ccsc4)s3)c2)[C@H](O)[C@@H](O)[C@@H]1O` [Example 190, (2S,3R,4R,5S,6R)-2-(4-Chloro-3-((2-(thiophen-3-yl)thiazol-5-yl)methyl)phenyl)-6-(hydroxymethyl)tetrahydro-2H-pyran-3,4,5-triol], which IC50 is on record?
A: 0.901 nM

Q: For `OC[C@H]1O[C@@H](c2ccc(Cl)c(Cc3cnc(-c4cocn4)s3)c2)[C@H](O)[C@@H](O)[C@@H]1O` [Example 191, (2S,3R,4R,5S,6R)-2-(4-Chloro-3-((2-(oxazol-4-yl)thiazol-5-yl)methyl)phenyl)-6-(hydroxymethyl)tetrahydro-2H-pyran-3,4,5-triol], which IC50 is on record?
A: 45.4 nM

Q: Which IC50 does the source give for `OC[C@H]1O[C@@H](c2ccc(Cl)c(Cc3cnc(-c4ccno4)s3)c2)[C@H](O)[C@@H](O)[C@@H]1O` [Example 192, (2S,3R,4R,5S,6R)-2-(4-Chloro-3-((2-(isoxazol-5-yl)thiazol-5-yl)methyl)phenyl)-6-(hydroxymethyl)tetrahydro-2H-pyran-3,4,5-triol] here?
A: 20.2 nM

Q: For `OC[C@H]1O[C@@H](c2ccc(Cl)c(Cc3cnc(-c4cscn4)s3)c2)[C@H](O)[C@@H](O)[C@@H]1O` [Example 193, (2S,3R,4R,5S,6R)-2-(3-(2,4′-Bithiazol-5-ylmethyl)-4-chlorophenyl)-6-(hydroxymethyl)tetrahydro-2H-pyran-3,4,5-triol], which IC50 is on record?
A: 17.7 nM

Q: For `OC[C@H]1O[C@@H](c2ccc(Cl)c(Cc3cnc(-c4ccc(F)cc4)s3)c2)[C@H](O)[C@@H](O)[C@@H]1O` [Example 194, (2S,3R,4R,5S,6R)-2-(4-Chloro-3-((2-(4-fluorophenyl)thiazol-5-yl)methyl)phenyl)-6-(hydroxymethyl)tetrahydro-2H-pyran-3,4,5-triol], which IC50 is on record?
A: 6.39 nM

Q: Which IC50 does the source give for `OC[C@H]1O[C@@H](c2ccc(Cl)c(Cc3cnc(-c4cnccn4)s3)c2)[C@H](O)[C@@H](O)[C@@H]1O` [Example 195] here?
A: 4.35 nM

Q: With `CSc1ncc(Cc2cc([C@@H]3O[C@H](CO)[C@@H](O)[C@H](O)[C@H]3O)ccc2Cl)s1` [Example 197, (2S,3R,4R,5S,6R)-2-(4-Chloro-3-((2-(methylthio)thiazol-5-yl)methyl)phenyl)-6-(hydroxymethyl)tetrahydro-2H-pyran-3,4,5-triol] as the compound, how does the IC50 read?
A: 9.48 nM

Q: For `CCCSc1ncc(Cc2cc([C@@H]3O[C@H](CO)[C@@H](O)[C@H](O)[C@H]3O)ccc2Cl)s1` [Example 198, (2S,3R,4R,5S,6R)-2-(4-Chloro-3-((2-(propylthio)thiazol-5-yl)methyl)phenyl)-6-(hydroxymethyl)tetrahydro-2H-pyran-3,4,5-triol], which IC50 is on record?
A: 15.4 nM

Q: `OC[C@H]1O[C@@H](c2cc(Cc3cnc(-c4ccsc4)s3)c(Cl)cc2F)[C@H](O)[C@@H](O)[C@@H]1O` [Example 203, (2S,3R,4R,5S,6R)-2-(4-Chloro-2-fluoro-5-((2-(thiophen-3-yl)thiazol-5-yl)methyl)phenyl)-6-(hydroxymethyl)tetrahydro-2H-pyran-3,4,5-triol] was tested. Which IC50 did it give?
A: 1.39 nM

Q: With “(2S,3R,4R,5S,6R)-2-(4-Chloro-2-ethoxy-5-((5-(furan-3-yl)thiazol-2-yl)methyl)phenyl)-6-(hydroxymethyl)tetrahydro-2H-pyran-3,4,5-triol [Example 31]” as the compound, how does the IC50 read?
A: 3.66 nM

Q: For “(2S,3R,4R,5S,6R)-2-(4-Chloro-2-ethoxy-5-((5-(thiophen-3-yl)thiazol-2-yl)methyl)phenyl)-6-(hydroxymethyl)tetrahydro-2H-pyran-3,4,5-triol [Example 80]”, which IC50 is on record?
A: 1.18 nM

Q: “(2S,3R,4R,5S,6R)-2-(4-Chloro-3-((4-phenylthiazol-2-yl)methyl)phenyl)-6-(hydroxymethyl)tetrahydro-2H-pyran-3,4,5-triol [Example 71]” was tested. Which IC50 did it give?
A: 1.59 nM

Q: Which IC50 does the source give for “(2S,3R,4R,5S,6R)-2-(4-Fluoro-3-((5-(thiazol-3-yl)thiazol-2-yl)methyl)phenyl)-6-(hydroxymethyl)tetrahydro-2H-pyran-3,4,5-triol [Example 43]” here?
A: 7.36 nM

Source: US8586550B2, “Thiazole derivatives as SGLT2 inhibitors and pharmaceutical composition comprising same” (Green Cross Corporation, priority 2010, dated 2013)
